± gives the expanded uncertainty stated by the source.
Conditions: Gas, Vibrating wire viscometry

FS(F)(F)(F)(F)F [sulfur hexafluoride]
Conditions | viscosity [mPa·s]
350 K, 269.03 kPa | 0.0176 ± 0.00091
350 K, 295.24 kPa | 0.0176 ± 0.00091
350 K, 332.44 kPa | 0.01761 ± 0.00091
350 K, 363.13 kPa | 0.01762 ± 0.00091
350 K, 390.5 kPa | 0.01763 ± 0.00091
350 K, 418.5 kPa | 0.01765 ± 0.00091
350 K, 450.38 kPa | 0.01765 ± 0.00091
350 K, 485.3 kPa | 0.01766 ± 0.00091
350 K, 522.75 kPa | 0.01767 ± 0.00091
350 K, 552.81 kPa | 0.01768 ± 0.00091
350 K, 579.7 kPa | 0.01769 ± 0.00091
350 K, 619.51 kPa | 0.01771 ± 0.00091
350 K, 654.26 kPa | 0.01772 ± 0.00091
350 K, 701.64 kPa | 0.01775 ± 0.00091
350 K, 739.48 kPa | 0.01775 ± 0.00091
350 K, 779.89 kPa | 0.01777 ± 0.00091
350 K, 809.98 kPa | 0.01779 ± 0.00091
350 K, 855.04 kPa | 0.0178 ± 0.00091
350 K, 900.26 kPa | 0.01782 ± 0.00091
350 K, 954.25 kPa | 0.01784 ± 0.00091
350 K, 997.88 kPa | 0.01787 ± 0.00091
350 K, 1051.5 kPa | 0.0179 ± 0.00091
350 K, 1146.2 kPa | 0.01795 ± 0.00091
350 K, 1196.5 kPa | 0.01798 ± 0.00091
350 K, 1265.4 kPa | 0.01803 ± 0.00091
350 K, 1341.2 kPa | 0.01807 ± 0.00092
350 K, 1392.7 kPa | 0.01811 ± 0.00092
350 K, 1473.1 kPa | 0.01816 ± 0.00092
350 K, 1546.1 kPa | 0.01821 ± 0.00092
350 K, 1621.8 kPa | 0.01827 ± 0.00092
350 K, 1656.3 kPa | 0.0183 ± 0.00092
350 K, 1713.2 kPa | 0.01835 ± 0.00092
350 K, 1840 kPa | 0.01844 ± 0.00092
350 K, 1888.3 kPa | 0.01849 ± 0.00092
350 K, 1964.6 kPa | 0.01856 ± 0.00092
350 K, 2005.9 kPa | 0.01861 ± 0.00092
350 K, 2043.2 kPa | 0.01864 ± 0.00092
350 K, 2108.6 kPa | 0.01871 ± 0.00092
350 K, 2309.3 kPa | 0.01893 ± 0.00092
350 K, 2394 kPa | 0.01903 ± 0.00092
350 K, 2449.2 kPa | 0.01908 ± 0.00092
350 K, 2505.1 kPa | 0.01916 ± 0.00092
350 K, 2608.1 kPa | 0.01929 ± 0.00092
350 K, 2657.7 kPa | 0.01936 ± 0.00093
350 K, 2798.4 kPa | 0.01957 ± 0.00093
350 K, 2900.4 kPa | 0.01971 ± 0.00093
350 K, 2978.2 kPa | 0.01986 ± 0.00093
350 K, 3047.1 kPa | 0.01996 ± 0.00093
350 K, 3125.3 kPa | 0.0201 ± 0.00093
350 K, 3224.5 kPa | 0.02028 ± 0.00093
350 K, 3319.6 kPa | 0.02047 ± 0.00093
350 K, 3405.3 kPa | 0.02064 ± 0.00094
350 K, 3504.4 kPa | 0.02085 ± 0.00094
350 K, 3655.4 kPa | 0.02123 ± 0.00094
350 K, 3748 kPa | 0.02146 ± 0.00094
350 K, 3869.5 kPa | 0.02179 ± 0.00094
350 K, 3987.5 kPa | 0.02211 ± 0.00095
350 K, 4143 kPa | 0.02261 ± 0.00095
350 K, 4307.3 kPa | 0.02322 ± 0.00096
350 K, 4473.2 kPa | 0.02386 ± 0.00096
350 K, 4598.1 kPa | 0.02443 ± 0.00096
350 K, 4732.9 kPa | 0.02508 ± 0.00097
350 K, 4848.3 kPa | 0.02571 ± 0.00097
350 K, 4964.3 kPa | 0.02637 ± 0.00098
350 K, 5096.1 kPa | 0.02724 ± 0.00099
350 K, 5208.7 kPa | 0.02806 ± 0.00099
350 K, 5327.4 kPa | 0.02902 ± 0.001
350 K, 5431.3 kPa | 0.02995 ± 0.001
350 K, 5524.2 kPa | 0.03078 ± 0.001
350 K, 5638.8 kPa | 0.03189 ± 0.001
350 K, 5741 kPa | 0.03299 ± 0.001
350 K, 5850 kPa | 0.03434 ± 0.001
350 K, 5956.2 kPa | 0.03561 ± 0.0011
350 K, 6067.6 kPa | 0.03706 ± 0.0011
350 K, 6177.6 kPa | 0.03857 ± 0.0011
350 K, 6280.8 kPa | 0.03995 ± 0.0011
350 K, 6385.1 kPa | 0.04139 ± 0.0011
350 K, 6510.8 kPa | 0.04319 ± 0.0012
350 K, 6635.4 kPa | 0.04497 ± 0.0011
350 K, 6769.6 kPa | 0.04684 ± 0.0011
350 K, 6918.8 kPa | 0.04891 ± 0.0012
350 K, 7076.5 kPa | 0.05108 ± 0.0012
350 K, 7230 kPa | 0.05306 ± 0.0012
350 K, 7408.1 kPa | 0.05532 ± 0.0012
350 K, 7592 kPa | 0.05755 ± 0.0012
350 K, 7767.3 kPa | 0.05957 ± 0.0012
350 K, 8006.2 kPa | 0.06218 ± 0.0013
350 K, 8297.4 kPa | 0.06505 ± 0.0013
350 K, 8558.7 kPa | 0.06754 ± 0.0013
350 K, 8849.5 kPa | 0.07028 ± 0.0013
350 K, 9294 kPa | 0.07399 ± 0.0014
350 K, 9823.4 kPa | 0.07814 ± 0.0014
350 K, 10614 kPa | 0.08354 ± 0.0015
350 K, 11424 kPa | 0.08869 ± 0.0015
350 K, 12301 kPa | 0.09386 ± 0.0016
375 K, 72.56 kPa | 0.01862 ± 0.00092
375 K, 103.02 kPa | 0.01864 ± 0.00092
375 K, 132.08 kPa | 0.01864 ± 0.00092
375 K, 156.74 kPa | 0.01865 ± 0.00092
375 K, 183.32 kPa | 0.01866 ± 0.00092
375 K, 219.98 kPa | 0.01868 ± 0.00092
375 K, 258.3 kPa | 0.01869 ± 0.00092
375 K, 282.8 kPa | 0.0187 ± 0.00092
375 K, 308.36 kPa | 0.01871 ± 0.00092
375 K, 342.15 kPa | 0.01871 ± 0.00092
375 K, 371.36 kPa | 0.01872 ± 0.00092
375 K, 403.52 kPa | 0.01873 ± 0.00092
375 K, 435.36 kPa | 0.01874 ± 0.00092
375 K, 464.82 kPa | 0.01875 ± 0.00092
375 K, 499.73 kPa | 0.01876 ± 0.00092
375 K, 539.14 kPa | 0.01878 ± 0.00092
375 K, 563.93 kPa | 0.01878 ± 0.00092
375 K, 612.98 kPa | 0.0188 ± 0.00092
375 K, 661.4 kPa | 0.01882 ± 0.00092
375 K, 695.12 kPa | 0.01884 ± 0.00092
375 K, 746.7 kPa | 0.01886 ± 0.00092
375 K, 805.08 kPa | 0.01888 ± 0.00092
375 K, 855.26 kPa | 0.0189 ± 0.00092
375 K, 917.96 kPa | 0.01894 ± 0.00092
375 K, 999.57 kPa | 0.01897 ± 0.00092
375 K, 1067.6 kPa | 0.01901 ± 0.00092
375 K, 1146.8 kPa | 0.01905 ± 0.00092
375 K, 1211.3 kPa | 0.01909 ± 0.00092
375 K, 1302.5 kPa | 0.01914 ± 0.00092
375 K, 1385 kPa | 0.01919 ± 0.00092
375 K, 1460.9 kPa | 0.01924 ± 0.00092
375 K, 1534.4 kPa | 0.01928 ± 0.00092
375 K, 1588.3 kPa | 0.01932 ± 0.00092
375 K, 1723.3 kPa | 0.01941 ± 0.00093
375 K, 1809.5 kPa | 0.01948 ± 0.00093
375 K, 1885.1 kPa | 0.01954 ± 0.00093
375 K, 1966.6 kPa | 0.01959 ± 0.00093
375 K, 2043 kPa | 0.01966 ± 0.00093
375 K, 2300.6 kPa | 0.0199 ± 0.00093
375 K, 2399.3 kPa | 0.01998 ± 0.00093
375 K, 2484.3 kPa | 0.02006 ± 0.00093
375 K, 2587.3 kPa | 0.02019 ± 0.00093
375 K, 2879.2 kPa | 0.02051 ± 0.00093
375 K, 3052.5 kPa | 0.02072 ± 0.00094
375 K, 3214.1 kPa | 0.02095 ± 0.00094
375 K, 3418.4 kPa | 0.02122 ± 0.00094
375 K, 3699.7 kPa | 0.02167 ± 0.00094
375 K, 3960.7 kPa | 0.02214 ± 0.00095
375 K, 4136.6 kPa | 0.02249 ± 0.00095
375 K, 4384.3 kPa | 0.02299 ± 0.00095
375 K, 4599 kPa | 0.02348 ± 0.00096
375 K, 4821 kPa | 0.02401 ± 0.00096
375 K, 5057 kPa | 0.02467 ± 0.00097
375 K, 5280.9 kPa | 0.02535 ± 0.00097
375 K, 5535.4 kPa | 0.02617 ± 0.00098
375 K, 5778.6 kPa | 0.02706 ± 0.00098
375 K, 6000.4 kPa | 0.02791 ± 0.00099
375 K, 6326.2 kPa | 0.02939 ± 0.001
375 K, 6677.7 kPa | 0.03112 ± 0.001
375 K, 6887.6 kPa | 0.03224 ± 0.001
375 K, 7092.9 kPa | 0.03343 ± 0.001
375 K, 7293.5 kPa | 0.03466 ± 0.001
375 K, 7524.4 kPa | 0.03612 ± 0.0011
375 K, 7762.9 kPa | 0.0377 ± 0.0011
375 K, 7973.1 kPa | 0.03919 ± 0.0011
375 K, 8202 kPa | 0.04079 ± 0.0011
375 K, 8452.7 kPa | 0.04259 ± 0.0011
375 K, 8711.3 kPa | 0.04448 ± 0.0011
375 K, 8972.9 kPa | 0.04632 ± 0.0011
375 K, 9257.7 kPa | 0.04836 ± 0.0011
375 K, 9573.7 kPa | 0.05065 ± 0.0012
375 K, 9868.9 kPa | 0.05275 ± 0.0012
375 K, 10221 kPa | 0.05519 ± 0.0012
375 K, 10547 kPa | 0.05738 ± 0.0012
